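1) Cells in 96-well plates. 2) Compound, 48 h, 5 concentrations. 3) Linear interpolation between surrounding doses. 4) Unreached endpoint = highest concentration. GI50 is the concentration that inhibits growth by half.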 The source made the active and inactive calls. Rule as the data show it: active = GI50 up to about 1.1 µM and inactive = higher.
What was measured:
Test in all cases: inhibition of tumour cell growth, NCI panel, 48 h
OVCAR-3 = test system: OVCAR-3
A549 = test system: A549
M14 = test system: M14
U-251 = test system: U-251
SF-539 = test system: SF-539
MDA-MB-435 = test system: MDA-MB-435
NCI-H23 = test system: NCI-H23
Hs-578T = test system: Hs-578T
MDA-MB-231 = test system: MDA-MB-231
OVCAR-8 = test system: OVCAR-8
SF-295 = test system: SF-295
SK-MEL-2 = test system: SK-MEL-2
HOP-62 = test system: HOP-62
RPMI-8226 = test system: RPMI-8226
SNB-19 = test system: SNB-19
NCI-H460 = test system: NCI-H460
HOP-92 = test system: HOP-92
IGROV-1 = test system: IGROV-1
TK-10 = test system: TK-10
SR = test system: SR

Measured: GI50

O=[N+]([O-])C(/C(Cl)=C(/Cl)N1CCOCC1)=C1\NCCO1
inactive: OVCAR-3 > 100 µM | A549 > 100 µM | M14 > 100 µM | U-251 > 100 µM | SF-539 > 100 µM | MDA-MB-435 > 100 µM | NCI-H23 > 100 µM | Hs-578T > 100 µM | MDA-MB-231 > 100 µM | OVCAR-8 > 100 µM | SF-295 > 100 µM | SK-MEL-2 > 100 µM | HOP-62 > 100 µM | RPMI-8226 > 100 µM | SNB-19 > 100 µM | NCI-H460 > 100 µM

Cc1ccc(S(=O)(=O)N/N=C2/C3C(CC2(C)C)C2(C)CCCC3(C)C2O)cc1 (stereo not given)
inactive: HOP-92 17.2 µM | OVCAR-3 34.4 µM | A549 20 µM | M14 22.9 µM | U-251 16.3 µM | MDA-MB-435 > 10 µM | NCI-H23 22.8 µM | Hs-578T 19 µM | OVCAR-8 32.7 µM | SF-295 15.4 µM | SK-MEL-2 21 µM | HOP-62 30.1 µM | IGROV-1 25 µM | RPMI-8226 35.6 µM | TK-10 36 µM | SR 20.7 µM | SNB-19 29.4 µM | NCI-H460 17.8 µM

COC(=O)/C=C\COCC1C2CCC(=O)C21 (stereo not given)
inactive: HOP-92 5.77 µM | OVCAR-3 8.41 µM | A549 > 25 µM | M14 8.36 µM | U-251 > 25 µM | SF-539 7.16 µM | MDA-MB-435 > 25 µM | NCI-H23 > 25 µM | MDA-MB-231 > 25 µM | OVCAR-8 > 25 µM | SF-295 > 25 µM | SK-MEL-2 > 25 µM | HOP-62 > 25 µM | IGROV-1 10.5 µM | RPMI-8226 11 µM | TK-10 13 µM | SR 8.3 µM | SNB-19 > 25 µM | NCI-H460 6.79 µM

O=P(O)(O)CC1OC(CO)C(O)C1O (stereo not given)
inactive: HOP-92 > 100 µM | OVCAR-3 > 100 µM | A549 > 100 µM | M14 > 100 µM | U-251 > 100 µM | SF-539 > 100 µM | MDA-MB-435 > 100 µM | NCI-H23 > 100 µM | Hs-578T > 100 µM | MDA-MB-231 > 100 µM | OVCAR-8 > 100 µM | SF-295 > 100 µM | SK-MEL-2 > 100 µM | IGROV-1 > 100 µM | TK-10 > 100 µM | SNB-19 > 100 µM | NCI-H460 > 100 µM
